# Like-named read-outs stand apart in the source and are kept apart here.
# How the values were obtained:
# [1] = test system: Mtb H37Ra ITM-M006710 (ATCC 9431); assay: Microplate Alamar Blue Assay (MABA) microdilution, Mtb H37Ra; type: cell-based, Mycobacterium tuberculosis; conditions: for MIC: Mycobacterium tuberculosis
# [2] = test system: M. smegmatis DSM 43465 (ATCC 607); assay: Microplate Alamar Blue Assay (MABA) microdilution, M. smegmatis; type: cell-based, Mycobacterium smegmatis
# [3] = test system: Mycobacterium aurum DSM 43999 (ATCC 23366); assay: Microplate Alamar Blue Assay (MABA) microdilution, M. aurum; type: cell-based
# [4] = test system: Staphylococcus epidermidis CCM 4418 (ATCC 12228); assay: Antibacterial microdilution broth method, SE; type: cell-based; conditions: 24 h
# [5] = test system: Candida albicans CCM 8320 (ATCC 24433); assay: Antifungal microdilution broth method, CA; type: cell-based
# [6] = test system: Candida krusei CCM 8271 (ATCC 6258); assay: Antifungal microdilution broth method, CK; type: cell-based; conditions: Pichia kudriavzevii
# [7] = test system: Candida parapsilosis CCM 8260 (ATCC 22019); assay: Antifungal microdilution broth method, CP; type: cell-based; conditions: Lodderomyces parapsilosis
# [8] = test system: Candida tropicalis CCM 8264 (ATCC 750); assay: Antifungal microdilution broth method, CT; type: cell-based
# [9] = test system: Aspergillus fumigatus ATCC 204305; assay: Antifungal microdilution broth method, AF; type: cell-based
# [10] = test system: Aspergillus flavus CCM 8363; assay: Antifungal microdilution broth method, AFla; type: cell-based
# Protocol: 6. In vitro antifungal activity screening
# Antifungal activity evaluation was performed using a microdilution broth method according to EUCAST instructions (The European Committee on Antimicrobial Susceptibility Testing) with slight modifications. Eight fungal strains (four yeast and four mould strains) were used for antifungal […]
# and Trichophyton interdigitale CCM 8377 (ATCC 9533). Tested strains were purchased from the Czech Collection of Microorganisms (CCM, Brno, Czech Republic) or from the American Type Collection Cultures (ATCC, Manassas, VA, USA). Tested compounds were dissolved in DMSO and diluted in a twofold manner with RPMI 1640 medium, with glutamine and 2% glucose, buffered to pH 7.0 with MOPS (3-morpholinopropane-1-sulfonic acid). The final concentration of DMSO in the testing […]
# Static incubation was performed in the dark and in humid atmosphere, at 35±2 °C, for 24 and 48 h (72 and 120 h for Trichophyton interdigitale respectively). Positive controls consisted of test microbe solely, while negative controls consisted of cultivation medium and DMSO. Visual inspection and metabolic activity indicator, Alamar Blue (ThermoFisher Scientific), were used for MIC endpoint evaluation. The internal quality standards, amphotericin B (Sigma-Aldrich) and voriconazole (Toronto research Chemicals, CA) were involved in assays (for MIC of standards see Table S5). All experiments were conducted in duplicates.
# For the results to be valid, the difference in MIC for one compound determined from two parallel measurements must not be greater than one step on the dilution scale.
# [11] = test system: Lichtheimia corymbifera CCM 8077; assay: Antifungal microdilution broth method, LC; type: cell-based
# [12] = test system: Trichophyton interdigitale CCM 8377 (ATCC 9533); assay: Antifungal microdilution broth method, TI; type: cell-based
# [13] = test system: Klebsiella pneumoniae CCM 4415 (ATCC 10031); assay: Antibacterial microdilution broth method, KP; conditions: for MIC KP: read after 24 h of incubation; for MIC: Klebsiella pneumoniae
# [14] = pH 6.6, read-out: MIC Mtb H37Ra
# [15] = pH 6, calculated from µg/mL, read-out: MIC Mtb H37Ra
# [16] = Mycolicibacterium smegmatis, pH 6, read-out: MIC M. smegmatis µg/mL
# [17] = Mycolicibacterium smegmatis, pH 6.6, read-out: MIC M. smegmatis
# [18] = Mycolicibacterium aurum, pH 6, read-out: MIC M. aurum µg/mL
# [19] = Mycolicibacterium aurum, pH 6.6, read-out: MIC M. aurum
# [20] = ATCC204305, 48 h, read-out: MIC AF
# [21] = CCM8363, read after 48 h (filamentous fungi), read-out: MIC AFla
# [22] = CCM8077, 48 h, read-out: MIC LC
# [23] = Mycolicibacterium smegmatis, pH 6; read-out: MIC M. smegmatis
# [24] = Mycolicibacterium smegmatis, pH 6.6; read-out: MIC M. smegmatis
# [25] = Mycolicibacterium aurum, pH 6; read-out: MIC M. aurum
# [26] = Mycolicibacterium aurum, pH 6.6; read-out: MIC M. aurum
# [27] = internal quality control, 530 nm, inhibition of growth of 90%, 24 h (yeasts), read-out: MIC, spectrophotometric detection
# [28] = internal quality control, naked eye, no visible growth, 24 h (yeasts), read-out: MIC, visual detection
# [29] = ATCC204305, internal quality control, naked eye, no visible growth, 48 h (moulds), read-out: MIC, visual detection
# [30] = CCM8363, internal quality control, naked eye, no visible growth, 48 h (moulds), read-out: MIC, visual detection
# [31] = CCM8077, internal quality control, naked eye, no visible growth, 48 h (moulds), read-out: MIC, visual detection
# [32] = internal quality control, naked eye, no visible growth, 48 h (moulds), read-out: MIC, visual detection
# [33] = 24 h, read-out: MIC, spectrophotometric detection
Compound,MIC ([1]; pH 6),"MIC ([1]; pH 6, read-out: MIC Mtb H37Ra)","MIC [1, 14]","MIC [1, 15]","MIC [2, 16]","MIC [2, 17]","MIC [3, 18]","MIC [3, 19]",MIC ([4]; read-out: MIC SE),"MIC ([5]; 24 h, read-out: MIC CA)","MIC ([6]; 24 h, read-out: MIC CK)","MIC ([7]; 24 h, read-out: MIC CP)","MIC ([8]; 24 h, read-out: MIC CT)","MIC [9, 20]","MIC [10, 21]","MIC [11, 22]","MIC ([12]; 48 h, read-out: MIC TI)",MIC KP [13],further results
COC(=O)C(CC(C)C)NC(=O)c1cnc(Cl)cn1 (stereo not drawn),,,,,,,,,,,,,,,,,,,MIC Mtb H37Ra ([1]; pH 6): 3.91 µg/mL; MIC Mtb H37Ra ([1]; pH 6.6): 62.5 µg/mL
"COC(=O)[C@H](C)NC(=O)c1cnccn1 (racemic) [PC-DL-Ala-Me, methyl (pyrazine-2-carbonyl)alaninate]",≥ 125 µg/mL,≥ 125 µg/mL,≥ 500 µg/mL,≥ 598 µM,≥ 125 µg/mL,≥ 500 µg/mL,≥ 125 µg/mL,≥ 500 µg/mL,> 500 µM,> 500 µM,250 µM,> 500 µM,> 500 µM,> 500 µM,> 500 µM,> 500 µM,> 500 µM,> 500 µM,
"O=C(O)c1cn(C2CC2)c2cc(N3CCNCC3)c(F)cc2c1=O [CPX, ciprofloxacin, reference compound]",,0.25 µg/mL,0.125 to 0.25 µg/mL,0.75 µM,,,,,,,,,,,,,,,"MIC [2, 23]: 0.0625 to 0.25 µg/mL; MIC [2, 24]: 0.0625 to 0.125 µg/mL; MIC [3, 25]: 0.0625 µg/mL; MIC [3, 26]: 0.0078 to 0.0156 µg/mL"
"CCOC(=O)[C@@H](C)NC(=O)c1cnccn1 [PC-D-Ala-Et, ethyl (pyrazine-2-carbonyl)-D-alaninate]",≥ 125 µg/mL,≥ 125 µg/mL,≥ 500 µg/mL,≥ 560 µM,≥ 125 µg/mL,≥ 500 µg/mL,≥ 125 µg/mL,≥ 500 µg/mL,> 500 µM,> 500 µM,> 500 µM,> 500 µM,> 500 µM,> 500 µM,> 500 µM,> 500 µM,> 500 µM,> 500 µM,
"COC(=O)CC[C@@H](NC(=O)c1cnccn1)C(=O)OC [PC-D-Glu-diMe, dimethyl (pyrazine-2-carbonyl)-D-glutamate]",≥ 500 µg/mL,≥ 500 µg/mL,≥ 500 µg/mL,≥ 1780 µM,≥ 500 µg/mL,≥ 500 µg/mL,≥ 500 µg/mL,≥ 500 µg/mL,> 500 µM,> 500 µM,> 500 µM,> 500 µM,> 500 µM,> 500 µM,> 500 µM,> 500 µM,> 500 µM,> 500 µM,
"COC(=O)[C@@H](COC(C)(C)C)NC(=O)c1cnccn1 [PC-D-OtBu-Ser-Me, methyl O-(tert-butyl)-N-(pyrazine-2-carbonyl)-D-serinate]",≥ 500 µg/mL,≥ 500 µg/mL,≥ 500 µg/mL,≥ 1780 µM,≥ 500 µg/mL,≥ 500 µg/mL,≥ 500 µg/mL,≥ 500 µg/mL,> 500 µM,> 500 µM,> 500 µM,> 500 µM,> 500 µM,> 500 µM,> 500 µM,> 500 µM,> 500 µM,> 500 µM,
"O=C(N[C@@H](CSCc1ccccc1)C(=O)O)c1cnccn1 [PC-L-SBn-Cys, S-benzyL-N-(pyrazine-2-carbonyl)-L-cysteine]",62.5 µg/mL,62.5 µg/mL,≥ 250 µg/mL,197 µM,≥ 250 µg/mL,≥ 250 µg/mL,125 µg/mL,≥ 250 µg/mL,250 µM,> 250 µM,> 250 µM,> 250 µM,> 250 µM,> 250 µM,> 250 µM,> 250 µM,> 250 µM,,
"CO[C@H]1/C=C/O[C@@]2(C)Oc3c(C)c(O)c4c(O)c(c(/C=N/N5CCN(C)CC5)c(O)c4c3C2=O)NC(=O)/C(C)=C\C=C\[C@H](C)[C@H](O)[C@@H](C)[C@@H](O)[C@@H](C)[C@H](OC(C)=O)[C@@H]1C [RIF, rifampicin, reference compound]",,0.0016 to 0.0062 µg/mL,0.0039 to 0.0078 µg/mL,0.0019 to 0.0075 µM,,,,,,,,,,,,,,,"MIC [2, 23]: 6.25 to 12.5 µg/mL; MIC [2, 24]: 12.5 to 25 µg/mL; MIC [3, 25]: 0.39 to 1.56 µg/mL; MIC [3, 26]: 0.39 to 0.78 µg/mL"
"C[C@@H]1[C@H](O)[C@@H](C)/C=C/C=C/C=C/C=C/C=C/C=C/C=C/[C@H](O[C@@H]2O[C@H](C)[C@@H](O)[C@H](N)[C@@H]2O)C[C@@H]2O[C@](O)(C[C@@H](O)C[C@@H](O)[C@H](O)CC[C@@H](O)C[C@@H](O)CC(=O)O[C@H]1C)C[C@H](O)[C@H]2C(=O)O [amphotericin B, reference compound]",,,,,,,,,,,,,,,,,,,"MIC [5, 27]: 0.5 µg/mL; MIC [5, 28]: 0.5 µg/mL; MIC [6, 27]: 0.5 µg/mL; MIC [6, 28]: 0.5 µg/mL; MIC [7, 27]: 0.5 µg/mL; MIC [7, 28]: 0.5 µg/mL; MIC [8, 27]: 1 µg/mL; MIC [8, 28]: 1 µg/mL; MIC ([9]; ATCC204305, internal quality control, 530 nm, inhibition of growth of 90%, 48 h (moulds), read-out: MIC, spectrophotometric detection): 1 µg/mL; MIC [9, 29]: 1 µg/mL; MIC ([10]; CCM8363, internal quality control, 530 nm, inhibition of growth of 90%, 48 h (moulds), read-out: MIC, spectrophotometric detection): 4 µg/mL; MIC [10, 30]: 4 µg/mL; MIC ([11]; CCM8077, internal quality control, 530 nm, inhibition of growth of 90%, 48 h (moulds), read-out: MIC, spectrophotometric detection): 0.125 µg/mL; MIC [11, 31]: 0.125 µg/mL; MIC ([12]; internal quality control, 530 nm, inhibition of growth of 90%, 48 h (moulds), read-out: MIC, spectrophotometric detection): 1 µg/mL; MIC [12, 32]: 1 µg/mL"
"CNC(C)C1CCC(N)C(OC2C(N)CC(N)C(OC3OCC(C)(O)C(NC)C3O)C2O)O1 (stereo not drawn) [gentamicin, reference compound]",,,,,,,,,,,,,,,,,,,"MIC ([4]; internal quality control, 530 nm, inhibition of growth of 95%, read-out: MIC, spectrophotometric detection): 0.125 µg/mL; MIC ([4]; internal quality control, naked eye, no visible growth, read-out: MIC, visual detection): 0.125 µg/mL; MIC ([13]; 24 h, read-out: MIC, visual detection): 0.5 µg/mL; MIC ([13]; ATCC10031|CCM4415, 24 h, read-out: MIC, spectrophotometric detection): 0.5 µg/mL"
"C[C@@H](c1ncncc1F)[C@](O)(Cn1cncn1)c1ccc(F)cc1F [voriconazole, reference compound]",,,,,,,,,,,,,,,,,,,"MIC [5, 33]: 0.03 µg/mL; MIC [5, 28]: > 16 µg/mL; MIC [6, 33]: 0.25 µg/mL; MIC [6, 28]: > 16 µg/mL; MIC [7, 33]: 0.03 µg/mL; MIC [7, 28]: > 16 µg/mL; MIC [8, 33]: 0.0625 µg/mL; MIC [8, 28]: > 16 µg/mL; MIC ([9]; ATCC204305, 48 h, read-out: MIC, spectrophotometric detection): 0.25 µg/mL; MIC [9, 29]: 1 µg/mL; MIC ([10]; CCM8363, 48 h, read-out: MIC, spectrophotometric detection): 1 µg/mL; MIC [10, 30]: > 16 µg/mL; MIC ([11]; CCM8077, 48 h, read-out: MIC, spectrophotometric detection): > 16 µg/mL; MIC [11, 31]: > 16 µg/mL; MIC ([12]; 48 h, read-out: MIC, spectrophotometric detection): > 16 µg/mL; MIC [12, 32]: > 16 µg/mL"

# Reference: article PMC7181131, “N-Pyrazinoyl Substituted Amino Acids as Potential Antimycobacterial Agents—the Synthesis and Biological Evaluation of Enantiomers” (Molecules, 2020)
